Reference: patent US20250375445A1, “METHODS OF TREATING A RAS PROTEIN-RELATED DISEASE OR DISORDER” (Revolution Medicines, Inc., priority 2024, published 2025)
pIC50, pKd: −log10 of the molar value.

Legend:
[1] = system: KRAS MUT (G12C, G12D, G12V); assay: RAS-RAF Disruption, KRAS MUT; type: biochemical
KRAS WT [2] = target: T1, KRAS WT (Homo sapiens, UniProt P01116+P62937); assay: RAS-RAF Disruption, KRAS WT; type: biochemical
[3] = system: NRAS MUT (Q61H, Q61K, Q61L, Q61R); assay: RAS-RAF Disruption, NRAS MUT; type: biochemical
NRAS WT = NRAS WT (Homo sapiens, UniProt P01111+P62937); assay: RAS-RAF Disruption, NRAS WT; type: biochemical
NRAS WT, sequence (P01111 whole entry): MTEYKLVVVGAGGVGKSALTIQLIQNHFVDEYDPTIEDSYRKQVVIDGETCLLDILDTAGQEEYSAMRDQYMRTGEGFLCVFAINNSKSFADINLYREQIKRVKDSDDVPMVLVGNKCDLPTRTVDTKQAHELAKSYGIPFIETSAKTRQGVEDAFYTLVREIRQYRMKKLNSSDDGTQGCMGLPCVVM
NRAS WT, sequence (P62937 whole entry): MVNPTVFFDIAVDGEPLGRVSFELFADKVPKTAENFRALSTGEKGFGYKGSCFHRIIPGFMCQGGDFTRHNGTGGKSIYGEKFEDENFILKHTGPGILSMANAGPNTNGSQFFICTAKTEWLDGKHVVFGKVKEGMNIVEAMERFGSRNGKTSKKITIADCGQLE

CypA = CypA (Homo sapiens, UniProt P62937); assay: CypA Binding (KD1)
CypA, sequence (P62937 whole entry): as above
Text: The KD1 value of a RAS(ON) multi-selective inhibitor can be determined using methods standard in the art, including but not limited to surface plasmon resonance (SPR), Fluorescence Polarization (FP), or isothermal titration calorimetry (ITC). In a non-limiting example, the binding affinity of compounds for CypA can be assessed by SPR using, for example, a Biacore 8K instrument. CypA is immobilized on a sensor chip (e.g., a streptavidin chip), and varying RAS(ON) multi-selective inhibitor compound concentrations can be flowed over the chip in assay buffer. […] In a specific embodiment, the KD1 of a RAS(ON) multi-selective inhibitor is determined using SPR.
The binding affinity of RAS(ON) multi-selective inhibitor compounds for CypA can also be assessed by FP competition with fluorescein tagged cyclosporine A by varying RAS(ON) multi-selective inhibitor compound concentrations. The signals can be fitted using a concentration response curve and the KD1 is calculated.
In some embodiments, the KD1 value of a RAS(ON) multi-selective inhibitor for CypA can be determined using ITC, a label-free biophysical technique that directly measures the heat released or absorbed during molecular interactions. […] As the inhibitor binds to CypA, the heat of binding is measured after each injection. […]

KRAS MUT (G12D, G12V) = assay: KRAS Binding of CypA:TCI (KD2), KRAS MUT
KRAS WT [4] = target: T1, KRAS WT; assay: KRAS Binding of CypA:TCI (KD2), KRAS WT
[5] = system: KRAS MUT (G12C, G12D, G12V); assay: Cellular pERK (2D, 4 hr), KRAS MUT; type: cell-based
RAS WT [6] = assay: Cellular pERK (2D, 4 hr), RAS WT; type: cell-based
[7] = system: KRAS MUT (G12C, G12D, G12V); assay: 2D Cell Viability, 120 hr, KRAS MUT; type: cell-based
BRAF (V600E) = assay: 2D Cell Viability, 120 hr, BRAF (V600E); type: cell-based
RAS WT [8] = assay: 3D Cell Viability, 120 hr, RAS WT; type: cell-based
[9] = Oral bioavailability (multiple species); conditions: in vivo, read-out: Oral % F (multiple species)
[10] = system: human DUSP6 in NCI-H441 xenograft tumor; assay: NCI-H441 xenograft single dose PKPD (exposure, human DUSP6); type: in vivo, mouse; conditions: single oral dose, NCI-H441 xenograft tumor (FIG. 2)
Description: (§1) All mouse studies and procedures related to animal handling, care and treatment complied with all applicable regulations and guidelines of Institutional Animal Care and Use Committee (IACUC) approvals. Female BALB/c nude mice, 6-8 weeks old were used. Animal vendor was Shanghai Sino-British Sippr/BK Laboratory Animal Co., LTD. NCI-H441 tumor cells (ATCC-HTB-174) was maintained in vitro in RPMI-1640 medium supplemented with 10% heat inactivated FBS, 100 μg/mL streptomycin. Each mouse was inoculated subcutaneously at the right flank with 2×10^6 tumor cells in 0.2 ml media/matrigel for tumor development. Efficacy treatment started when the average tumor size reached 150-200 mm^3 in size, and the single dosed PKPD treatment started when tumor size reached 300-600 mm^3. Mice in the study were weighted and tumors were measured twice weekly.

[11] = system: NCI-H441 KRAS^G12V NSCLC xenograft model; assay: NCI-H441 xenograft efficacy and tolerability; type: in vivo
Description: as §1
NCI-H441 is a human lung tumor derived cell line. It harbors a KRAS^G12V mutation. It is typically grown in immune-deficient mice as a xenograft model. An NCI-H441 xenograft study was conducted in female BALB/C Nude mice. Each mouse was inoculated subcutaneously on the right flank with the single cell suspension of tumor cells (2×10^6) in 200 uL with BD Matrigel (1:1 ratio) for tumor development. Tumor width and length were measured with digital calipers, and the tumor volume in mm3 was calculated using the formula: Volume=((width)2×length)/2, where width and length are measured in mm.
Tumor growth inhibition (TGI, %) was calculated as percentage change in tumor volume for each group 100×(Vdayxc−Vdayx)/(Vdayxc−Vdayoc), where Vday0c is the starting mean tumor volume for the vehicle group, and Vdayx and Vdayxc are the corresponding tumor volumes for treatment group and control group on day x, calculated for the duration of the study. Mean tumor regression (where applicable, Vdayx<Vday0x) was calculated using the formula 100×(Vday0x−Vdayx)/Vday0x.
Differences in treatment arms as compared to vehicle controls were assessed by an ordinary one-way ANOVA of tumor volumes along with multiple comparisons via a post-hoc Tukey's test in GraphPad Prism software. Note, in some studies, additional test articles/groups (not reported here) were included and statistical analyses (ANOVA, post-hoc within group comparisons) were conducted on all treatment groups to allow for any interactions. The statistical significance values reported here represent the output of such analyses for RMC-6236 treatment arm.

[12] = system: Capan-2, KRAS^G12V PDAC CDX model; assay: Capan-2 xenograft efficacy and tolerability; type: in vivo, mouse
Description: Capan-2 is a human pancreatic adenocarcinoma derived cell line. It harbors a KRAS^G12V mutation. It is typically grown in immune-deficient mice as a xenograft model. A Capan-2 xenograft study was conducted in female BALB/C Nude mice. Each mouse was inoculated subcutaneously on the right flank with the single cell suspension of tumor cells (4×10^6) in 100 uL RPMI 1640/Matrigel mixture (1:1 ratio) for tumor development. Tumor width and length were measured with digital calipers, and the tumor volume in mm3 was calculated using the formula: Volume=((width)2×length)/2, where width and length are measured in mm. Tumor growth inhibition (TGI, %) was calculated as percentage change in tumor volume for each group 100×(Vdayxc−Vdayx)/(Vdayxc−Vday0c), where Vday0c is the starting mean tumor volume for the vehicle group, and Vdayx and Vdayxc are the corresponding tumor volumes for treatment group and control group on day x, calculated for the duration of the study. Mean tumor regression (where applicable, Vdayx<Vday0x) was calculated using the formula 100×(Vday0x−Vdayx)/Vday0x.

[13] = Half-life after oral administration to patients; conditions: human, in vivo
RAS mutant NSCLC or PDAC = assay: Phase I study of RMC-6236 (NCT05379985); type: in vivo, human
[14] = Tolerability by dosing schedule in preclinical models
[15] = 25 mg/kg daily, 50 mg/kg daily, 50 mg/kg Q2D and 100 mg/kg Q2D (FIG. 3)
[16] = patients with RAS mutant NSCLC or PDAC

T1 sequence (P01116 1-188 isoform P01116-2): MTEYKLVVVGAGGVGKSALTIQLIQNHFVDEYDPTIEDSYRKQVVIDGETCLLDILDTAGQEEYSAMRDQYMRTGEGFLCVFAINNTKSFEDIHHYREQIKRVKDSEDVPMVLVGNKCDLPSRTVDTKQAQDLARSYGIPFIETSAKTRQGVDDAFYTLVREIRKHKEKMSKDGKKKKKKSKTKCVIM
T1 sequence (P62937 whole entry): as the sequence (P62937 whole entry) above

| Compound | pIC50 [1] | pIC50 (KRAS WT [2]) | pIC50 [3] | pIC50 (NRAS WT) | pKd (CypA) | pKd (KRAS MUT (G12D, G12V)) | pKd (KRAS WT [4]) | pIC50 [5] | pIC50 (RAS WT [6]) | pIC50 [7] | pIC50 (BRAF (V600E)) | pIC50 (RAS WT [8]) | bioavailability [9] [%] | time of maximum DUSP6 suppression post single dose [10] [h] | further results |
| --- | --- | --- | --- | --- | --- | --- | --- | --- | --- | --- | --- | --- | --- | --- | --- |
| CCn1c(-c2cc(N3CCN(C4CC4)CC3)cnc2[C@H](C)OC)c2c3cc(ccc31)-c1csc(n1)C[C@H](CC(=O)[C@H]1[C@@H]3COC[C@@H]31)C(=O)N1CCC[C@H](N1)C(=O)OCC(C)(C)C2 (atropisomer, axis not shown) [RMC-7977] | 6.76 to 7.51 | 7.12 | 6.84 to 7.32 | 7.24 | 6.67 | 6.36 to 6.95 | 6.94 | 8.39 to 9.30 | 8.77 | 8.31 to 9.10 | 5.08 | 8.72 | 60 | 8 | – |
| CCn1c(-c2cc(N3CCN(C)CC3)cnc2[C@H](C)OC)c2c3cc(ccc31)-c1csc(n1)C[C@H](NC(=O)[C@H](C(C)C)N(C)C(=O)N(C)C)C(=O)N1CCC[C@H](N1)C(=O)OCC(C)(C)C2 (atropisomer, axis not shown) [Compound A] | 6.78 to 7.64 | 7.38 | 6.96 to 7.74 | 7.48 | 7.92 | – | 7.09 | 9.00 to 9.52 | 9.40 | 8.92 to 9.70 | 5.73 | 9.40 | 20 to 38 | 24 | tolerability (dosing holidays) [11, 15]: all treatment groups require some dosing holidays towards the end; tumor regression [11, 15]: the same tumor regression |
| CCn1c(-c2cc(N3CCN(C)CC3)cnc2[C@H](C)OC)c2c3cc(ccc31)-c1csc(n1)C[C@H](NC(=O)[C@H]1C[C@@H]1C)C(=O)N1CCC[C@H](N1)C(=O)OCC(C)(C)C2 (atropisomer, axis not shown) [RMC-6236, daraxonrasib] | 6.64 to 7.46 | – | 6.69 to 7.24 | – | – | 6.44 to 6.88 | – | 8.44 to 9.40 | 8.82 | 8.51 to 9.00 | 5.14 | 8.85 | 24 to 33 | 8 | decrease in tumor volume ([11]; 25 mg/kg (Q2D) (FIG. 1)): lower decreases in tumor volume; tumor regression ([11]; 25 mg/kg QD, NCI-H441 model (FIG. 6)): 88%; tumor regression ([11]; 100 mg/kg Q2D, NCI-H441 model (FIG. 6)): 89%; tumor regression ([11]; 100 mpk with increased interval of dosing, NCI-H441 model (FIG. 6)): 68%; tolerability, body weight ([11]; all doses and regimens of FIG. 6): without any significant body weight loss; tolerability ([11]; all regimens of FIG. 4 and FIG. 5): tolerated in vivo; tumor regression ([12]; 25 mg/kg QD, Capan-2 (FIG. 7)): 53%; tumor regression ([12]; 35 mg/kg 5on2off, Capan-2 (FIG. 7)): 28%; tumor regression ([12]; 40 mg/kg 4on3off, Capan-2 (FIG. 7)): 27%; tumor regression ([12]; 50 mg/kg Q2D, Capan-2 (FIG. 7)): 51%; tolerability, body weight ([12]; all tested doses and regimens, Capan-2 (FIG. 7)): without any significant body weight loss; tumor growth inhibition ([12]; all tested doses and regimens, oral administration (FIG. 7)): Tumor growth inhibition was observed; half-life [13]: ~10 h; most common treatment-related adverse events (TRAEs) (RAS mutant NSCLC or PDAC): rash and GI-related toxicities; antitumor activity (RAS mutant NSCLC or PDAC; [16]): encouraging antitumor activity; safety profile (RAS mutant NSCLC or PDAC; [16]): acceptable safety profile; body weight loss and tolerability ([14]; BID dosing): more severe body weight loss and intolerability; tolerated dose level ([14]; Q2D dosing): allows higher dose levels to be tolerated; body weight loss ([14]; Q2D dosing at an equivalent dose of QD dosing): slightly improves the body weight loss |
